Patent publication US20250081966A1, “HERBICIDE COMBINATIONS” (UPL CORPORATION LIMITED, priority 2021, published 2025)

How the values were obtained:
Assay type in all cases: in vivo
LOLMU (S-strain) = test: Efficacy of pre-emergence spray against resistant weed LOLMU (Example 1); details: sprayed at pre-emergence stage
Procedure: Experiments were conducted to assess the efficacy of herbicidal combination comprising napropamide/napropamide-M to control a weed (LOLMU) which is resistant to control by conventional herbicides. Percentage efficacy of the herbicidal combination was determined over time (measured as days after anthesis, [DAA]) following application the of herbicidal combination comprising napropamide/napropamide-M and prosulfocarb. The herbicidal combination was applied by spraying to LOLMU (S-strain) at pre-emergence stage.

[1] = tested on: Lolium multiflorum Lam. (Italian ryegrass, LOLMU); test: Weed control of LOLMU in wheat crop, pre-emergence spray (Example 2); details: 450 g/L
Procedure: (§1) Experiments were conducted to assess the efficacy of herbicidal combination comprising napropamide/napropamide-M to control a weed, Lolium multiflorum Lam. (Italian ryegrass, LOLMU) in wheat crop. The weed is resistant to control by conventional herbicides. Percentage efficacy of the herbicidal combination was determined over time (measured as days after anthesis, [DAA]) following application of the herbicidal combination comprising napropamide/napropamide-M and propisochlor. The herbicide combination was applied by spraying to LOLMU at pre-emergence stage.

[2] = tested on: Lolium multiflorum Lam. (Italian ryegrass, LOLMU); test: Weight of the weed in wheat crop (Example 2); details: for % Decrease in weight of weed: versus untreated control
Procedure: as §1
Further, the effect of the herbicidal combination was also assessed for the weight of the weed in wheat crop and the results has been disclosed in Table 3.

SMILES: CCN(CC)C(=O)[C@@H](C)Oc1cccc2ccccc12 [Napropamide-M 450 g/L, Napropamide-M]
- Control in weed (%) (LOLMU (S-strain); dose 315 g/Ha): 69.80%

SMILES: CCCN(CCC)C(=O)SCc1ccccc1 [Prosulfocarb 800 g/L, prosulfocarb]
- Control in weed (%) (LOLMU (S-strain); dose 2400 g/Ha): 68.14%
- Control in weed (%) (LOLMU (S-strain); dose 5000 g/Ha): 78.02%

SMILES: CCN(CC)C(=O)C(C)Oc1cccc2ccccc12 (stereo not drawn) [Napropamid, N,N-diethyl-2-(α-naphthoxy) propionamide]
- Weed control (%) 15 DAA ([1]; dose 750 g/Ha): 65%
- Weed control (%) 25 DAA ([1]; dose 750 g/Ha): 83%
- Weed control (%) 45 DAA ([1]; dose 750 g/Ha): 79%
- Weed control (%) 15 DAA ([1]; dose 1000 g/Ha): 72%
- Weed control (%) 25 DAA ([1]; dose 1000 g/Ha): 86%
- Weed control (%) 45 DAA ([1]; dose 1000 g/Ha): 82%
- Weight of weed (g/m^2) ([2]; 450 g/L, dose 750 g/Ha): 2.11 g/m^2
- % Decrease in weight of weed ([2]; 450 g/L, dose 750 g/Ha): 27%
- Weight of weed (g/m^2) ([2]; 450 g/L, dose 1000 g/Ha): 1.86 g/m^2
- % Decrease in weight of weed ([2]; 450 g/L, dose 1000 g/Ha): 36%

SMILES: CCc1cccc(C)c1N(COC(C)C)C(=O)CCl [Propisochlor, propisochlor]
- Weight of weed (g/m^2) ([2]; 720 g/L, dose 800 g/Ha): 760 g/m^2
- % Decrease in weight of weed ([2]; 720 g/L, dose 800 g/Ha): 74%
